Test results as given in article PMC10900215 (JACS Au, 2024).
Values joined by “and” are separate entries in the source; they are usually repeats but may differ in a detail not shown here. Equal entries are not always repeated.

Legend:
[1] = target: T1, METTL3-14 (Homo sapiens, UniProt Q86U44); assay: Cellular degradation assay (Western blot), METTL3 and/or METTL14 (METTL3–14) in MOLM-13; assay type: cell-based; set-up: METTL3–14 degradation up to 70% of the endogenous level; endogenous in cells; host or cells: MOLM-13, KASUMI-1, THP-1, NOMO-1; details: MOLM-13, 2 μM, 24 h, Western blot
Procedure: MOLM-13, NOMO-1, THP-1, Kasumi-1, PC3, and DU145 cell lines were obtained from DSMZ-German Collection of Microorganisms and Cell Cultures GmbH. […] All cell lines were tested negative for mycoplasma contamination (PCR-based assay by Microsynth, Switzerland).
METTL3 (and METTL14) protein degradation was monitored by Western blot. Cells were treated with the indicated concentration of PROTACs or DMSO control (0.1% (v/v)) for 24h, 37 °C with 5% CO2. […] After SDS-PAGE, proteins were transferred to a nitrocellulose membrane, blocked (with 5% milk, 0.5% BSA in TBST buffer), and incubated overnight with primary antibodies. […] Densitometry was performed in Image Studio Lite software and analyzed in GraphPad Prism 9.
Target sequence in this assay (Q86U44 2-580 limits assumed): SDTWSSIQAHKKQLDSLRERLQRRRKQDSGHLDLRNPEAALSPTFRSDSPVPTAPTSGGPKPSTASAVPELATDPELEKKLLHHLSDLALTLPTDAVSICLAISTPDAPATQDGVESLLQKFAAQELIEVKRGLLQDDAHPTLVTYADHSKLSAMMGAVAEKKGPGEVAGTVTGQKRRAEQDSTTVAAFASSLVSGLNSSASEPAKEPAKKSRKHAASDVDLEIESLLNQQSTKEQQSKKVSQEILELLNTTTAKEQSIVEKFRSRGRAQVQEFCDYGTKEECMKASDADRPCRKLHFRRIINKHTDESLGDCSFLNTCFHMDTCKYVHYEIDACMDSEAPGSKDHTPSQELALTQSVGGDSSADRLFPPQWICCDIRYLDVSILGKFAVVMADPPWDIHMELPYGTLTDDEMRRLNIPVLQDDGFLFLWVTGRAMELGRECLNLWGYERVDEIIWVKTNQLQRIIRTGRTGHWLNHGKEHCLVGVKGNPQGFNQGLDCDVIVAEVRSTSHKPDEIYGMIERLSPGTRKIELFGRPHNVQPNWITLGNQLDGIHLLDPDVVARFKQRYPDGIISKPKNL
Target sequence in this assay (Q9HCE5 whole entry partner): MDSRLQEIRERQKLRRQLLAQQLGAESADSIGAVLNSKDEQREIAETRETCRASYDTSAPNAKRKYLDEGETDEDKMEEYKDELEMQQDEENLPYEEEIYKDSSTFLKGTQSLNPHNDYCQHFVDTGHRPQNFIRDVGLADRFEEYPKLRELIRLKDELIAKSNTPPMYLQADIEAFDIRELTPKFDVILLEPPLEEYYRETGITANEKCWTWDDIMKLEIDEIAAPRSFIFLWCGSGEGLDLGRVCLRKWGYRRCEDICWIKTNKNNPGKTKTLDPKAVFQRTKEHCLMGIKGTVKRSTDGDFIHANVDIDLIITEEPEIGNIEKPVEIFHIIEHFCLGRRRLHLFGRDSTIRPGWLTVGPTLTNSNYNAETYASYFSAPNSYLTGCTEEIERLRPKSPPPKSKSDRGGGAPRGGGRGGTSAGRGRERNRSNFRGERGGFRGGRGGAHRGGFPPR

[2] = Cell viability assay (CellTiter-Glo) on MOLM-13; assay type: cell-based; details: human, MOLM-13 cells, average of two biological replicates; for viability at 72 h, […]: 2.5 µM
Procedure: (§1) MOLM-13, NOMO-1, THP-1, Kasumi-1, PC3, and DU145 cell lines were obtained from DSMZ-German Collection of Microorganisms and Cell Cultures GmbH. Cells were cultured in RPMI 1640 medium (11875093, Thermo Fisher Scientific) containing 10% FBS (16140071, Thermo Fisher Scientific) and 1% penicillin-streptomycin (15140122, Thermo Fisher Scientific) in 5% CO2 at 37 °C in a humidified incubator, with maintained cell densities at 0.5–1 × 10^6 cells/mL. All cell lines were tested negative for mycoplasma contamination (PCR-based assay by Microsynth, Switzerland).
Cell viability was determined using a CellTiter-Glo luminescent cell viability assay (Promega) based on the detection of ATP according to the manufacturer’s instructions. 100 μL of the reagent was added to each well and incubated for 10 min at room temperature. […] Background luminescence value was obtained from wells containing the CellTiter-Glo reagent and medium without cells. The resulting data was analyzed in GraphPad Prism 9.

[3] = system: METTL14; assay: Cellular degradation assay (Western blot), METTL14 in MOLM-13; assay type: cell-based, human; details: MOLM-13, 24 h, 2 μM compound
Procedure: as §1
(§2) METTL3 (and METTL14) protein degradation was monitored by Western blot. Cells were treated with the indicated concentration of PROTACs or DMSO control (0.1% (v/v)) for 24h, 37 °C with 5% CO2. Samples were then collected and lysed with RIPA buffer with added protease inhibitors (11697498001, Roche). After SDS-PAGE, proteins were transferred to a nitrocellulose membrane, blocked (with 5% milk, 0.5% BSA in TBST buffer), and incubated overnight with primary antibodies. The following antibodies were used: GAPDH (no. 2118, Cell Signaling, 1:4000), β-actin (ab8226, Abcam, 1:2000), METTL3 (ab195352, Abcam, 1:1000), and METTL14 (ab220031, Abcam, 1:1000). Membranes were scanned using an LI-COR Odyssey DLx imager after incubation with appropriate secondary antibodies (antimouse IgG IRDye 680RD (926–68072, LI-COR, 1:10000) and goat anti-Rabbit IgG IRDye 800CW (926–32211, LI-COR, 1:10000)). Densitometry was performed in Image Studio Lite software and analyzed in GraphPad Prism 9.

[4] = target: T2, ternary complex CRBN/PROTAC/METTL3–14 (Homo sapiens, UniProt Q86U44+Q96SW2); assay: FRET-based ternary complex formation assay (TCFA); assay type: binding; details: for TCFA amplitude (mean ± SEM): Hook curve amplitude, fraction of the maximum of compound 16; for ECmax (nM) ± SD: PROTAC concentration at the maximum of the signal in the TCFA; for ECmax: TCFA, peak of the Hook curve
T2 construct: methyltransferase domains (MTD) of METTL3 (residues 354–580); His6 (N, cleaved yes); made in house; host or cells: METTL3-MTD/METTL14-MTD: baculovirus/Sf9; CRBN-TBD: E. coli Rosetta (DE3), co-expressed with BirA
T2 sequence (Q86U44 354-580): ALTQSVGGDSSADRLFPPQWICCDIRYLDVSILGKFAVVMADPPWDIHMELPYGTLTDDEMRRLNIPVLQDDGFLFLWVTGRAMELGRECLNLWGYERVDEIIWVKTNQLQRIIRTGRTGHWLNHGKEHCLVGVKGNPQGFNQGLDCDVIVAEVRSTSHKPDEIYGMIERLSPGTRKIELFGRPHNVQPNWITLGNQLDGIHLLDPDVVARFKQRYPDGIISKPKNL
T2 sequence (Q9HCE5 107-395 partner limits assumed): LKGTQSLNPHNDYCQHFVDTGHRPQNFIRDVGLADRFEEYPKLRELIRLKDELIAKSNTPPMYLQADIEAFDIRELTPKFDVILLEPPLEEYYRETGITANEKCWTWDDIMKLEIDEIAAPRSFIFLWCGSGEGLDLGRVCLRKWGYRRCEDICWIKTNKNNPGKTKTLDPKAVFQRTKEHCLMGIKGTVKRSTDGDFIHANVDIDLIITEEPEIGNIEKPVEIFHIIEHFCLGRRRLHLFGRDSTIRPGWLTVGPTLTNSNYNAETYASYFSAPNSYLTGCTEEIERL
T2 sequence (Q96SW2 318-442): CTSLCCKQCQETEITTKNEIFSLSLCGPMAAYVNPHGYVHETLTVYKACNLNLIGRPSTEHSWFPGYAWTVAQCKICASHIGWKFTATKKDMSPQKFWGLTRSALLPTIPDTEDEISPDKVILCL
Procedure: For protein expression, suspension cultures of Sf9 cells in […] medium (Thermo Fisher) were infected at a density of 2 × 10^6 mL^–1. […] The complex was further purified by size exclusion chromatography using a Superdex 200 Increase 10/300 GL column (Cytiva) in 20 mM Tris-Cl, pH 8.0, and 200 mM KCl. The complex was aliquoted and flash-frozen in liquid nitrogen and stored at −80 °C until further use.
Ternary complex formation between the PROTACs, METTL3, and CRBN was quantified by a homogeneous time-resolved fluorescence (HTRF)-based enzyme assay. […] Curves of titrations with the PROTACs were plotted in GraphPad Prism 9.5.1 and fitted with a Gaussian function, if appropriate. […] CRBN^TBD-Avi(biotin) was used at a final concentration of 10 nM. […] Anti-GST Eu^3+-labeled antibody (Cisbio, 61GSTKLB) was used at a final concentration of 0.8 nM. The final reaction volume was 20 μL in 50 mM HEPES (pH 7.5), 150 mM NaCl, 0.1% BSA, 100 mM KF. […] The ratio of the emissions [drawing 1] was considered for further analysis. […] The concentrations resulting in the maximum signal (ECmax) and the amplitudes of the Hook curves were determined from the parameters of the Gaussian fit (if appropriate) or as the coordinates of the data-point with the highest TR-FRET signal.
For the ternary complex formation assay (TCFA), one of the protein partners must have a GST-tag and the other a biotin-tag.

[5] = target: T1, METTL3-14; assay: biochemical; set-up: with the full-length complex, the recombinant complex construct pFastBacDual-StrepII-GFP-TEV-METTL3-His-TEV-METTL14 was expressed; StrepII (N); GFP (N); TEV site (N); made in house; host or cells: baculovirus/Sf9 insect cells; details: inhibition of catalytic activity of METTL3-14, binary FRET assay
Source text: For determining the half maximal inhibitory concentration (IC50) with the full-length complex, the recombinant complex construct pFastBacDual-StrepII-GFP-TEV-METTL3-His-TEV-METTL14 was expressed using the baculovirus/Sf9 insect cell expression system and purified as described previously.[21]
The inhibitory potencies of the PROTACs for METTL3 were quantified by a homogeneous time-resolved fluorescence (HTRF)-based enzyme assay as previously described.[40]
Target sequence in this assay (Q86U44 whole entry): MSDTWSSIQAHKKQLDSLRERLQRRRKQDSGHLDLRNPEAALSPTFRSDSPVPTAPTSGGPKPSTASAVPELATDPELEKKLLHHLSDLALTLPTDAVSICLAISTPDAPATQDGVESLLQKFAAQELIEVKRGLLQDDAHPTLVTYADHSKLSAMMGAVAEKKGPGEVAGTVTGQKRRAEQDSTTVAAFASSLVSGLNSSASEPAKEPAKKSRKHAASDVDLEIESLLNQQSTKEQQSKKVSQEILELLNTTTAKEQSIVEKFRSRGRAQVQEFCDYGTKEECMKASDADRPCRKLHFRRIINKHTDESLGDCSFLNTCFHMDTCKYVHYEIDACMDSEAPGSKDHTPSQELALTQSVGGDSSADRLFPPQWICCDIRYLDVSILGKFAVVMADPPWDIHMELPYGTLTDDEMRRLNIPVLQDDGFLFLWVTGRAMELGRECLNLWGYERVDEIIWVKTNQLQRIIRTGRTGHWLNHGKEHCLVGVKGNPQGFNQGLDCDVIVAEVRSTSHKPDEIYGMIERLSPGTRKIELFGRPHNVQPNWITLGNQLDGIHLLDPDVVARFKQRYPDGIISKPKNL
Target sequence in this assay (Q9HCE5 whole entry, further chain): as the sequence (Q9HCE5 whole entry partner) above

[6] = target: T3, METTL3 (Homo sapiens, UniProt Q86U44); assay: Cellular degradation assay (Western blot), METTL3 in MOLM-13; assay type: cell-based; details: MOLM-13, 24 h, 2 μM compound
T3 construct: METTL3–14 degradation up to 70% of the endogenous level; endogenous in cells; host or cells: MOLM-13, PC3, DU145
T3 sequence (Q86U44 2-580 limits assumed): as the sequence (Q86U44 2-580 limits assumed) above
T3 sequence (Q9HCE5 whole entry partner): as the sequence (Q9HCE5 whole entry partner) above
Procedure: as §1, §2

Row | Compound | degradation of METTL3 and/or METTL14 [1] | viability at 72 h, 10 µM [2] [%] | MOLM-13 West. blot at 24h 2 μM comp conc. Degradation (%) of METTL14 [3] [%] | TCFA amplitude (mean ± SEM) [4] | ECmax (nM) ± SD [4] [nM] | IC50 [5] [nM] | MOLM-13 West. blot at 24h 2 μM comp conc. Degradation (%) of METTL3 [6] | viability at 72 h, 0.6 µM [2] [%] | viability at 72 h, 1.25 µM [2] [%] | viability at 72 h, […] [2] [%] | viability at 72 h, 5 µM [2] [%] | ECmax [4]
1 | CN1C(=O)CCC(N2C(=O)c3cccc(NCCCCCC(=O)N4CCC(CNc5cc(N6CCC7(CC6)CN(c6cc(F)c(CN8CCC(C)(C)CC8)cc6F)CC(=O)N7)ncn5)CC4)c3C2=O)C1=O (stereo not shown) [me-24] | did not show any METTL3–14 degradation |  |  |  |  |  |  |  |  |  |  | 
2 | CC1(C)CCN(Cc2cc(F)c(N3CC(=O)NC4(CCN(c5cc(NCc6cccc(CNC(=O)CCCCCCCCNc7cccc8c7CN(C7CCC(=O)NC7=O)C8=O)c6)ncn5)CC4)C3)cc2F)CC1 (stereo not shown) [Compound 16] |  | 103 | 39 ± 13 | 1.0 ± 0.0 | 430 ± 180 | 67 ± 11 | 24 ± 14% |  |  |  |  | 
3 | CC1(C)CCN(Cc2cc(F)c(N3CC(=O)NC4(CCN(c5cc(NCCN6CCN(C(=O)CCCCCCCNc7cccc8c7C(=O)N(C7CCC(=O)NC7=O)C8=O)CC6)ncn5)CC4)C3)cc2F)CC1 (stereo not shown) [Compound 31] | ≥ 50% | 80.2 | 55 ± 24 | 0.9 ± 0.0 | 110 ± 40 |  | 49 ± 33% | 95.4 | 88.3 | 88 | 85.2 | submicromolar
4 | CC1(C)CCN(Cc2cc(F)c(N3CC(=O)NC4(CCN(c5cc(NCC6CCN(C(=O)CCCCCCCNc7cccc8c7C(=O)N(C7CCC(=O)NC7=O)C8=O)CC6)ncn5)CC4)C3)cc2F)CC1 (stereo not shown) [Compound 25] |  | 83.2 | 36 ± 7 | 1.2 ± 0.1 | 1200 ± 120 | 110 ± 10 | 20 ± 9% | 102 | 94.8 | 92.1 | 87 | 
5 | CC1(C)CCN(Cc2cc(F)c(N3CC(=O)NC4(CCN(c5cc(NCCN6CCN(C(=O)CCCNc7cccc8c7C(=O)N(C7CCC(=O)NC7=O)C8=O)CC6)ncn5)CC4)C3)cc2F)CC1 (stereo not shown) [Compound 29] | ≥ 50% | 87.4 | 51 ± 11 | 1.0 ± 0.0 | 80 ± 0 |  | 42 ± 14% | 93.7 | 93.5 | 93.4 | 94.5 | submicromolar
6 | CC1(C)CCN(Cc2cc(F)c(N3CC(=O)NC4(CCN(c5cc(NCCCNC(=O)CCCCCCCCNc6cccc7c6CN(C6CCC(=O)NC6=O)C7=O)ncn5)CC4)C3)cc2F)CC1 (stereo not shown) [Compound 10] |  | 86.6 | 18 ± 16 | 1.0 ± 0.0 | 200 ± 110 | 66 ± 10 | 18 ± 6% |  |  |  |  | below 1 μM
7 | CC1(C)CCN(Cc2cc(F)c(N3CC(=O)NC4(CCN(c5cc(NCc6cn(CCCCCCCCC(=O)Nc7cccc8c7CN(C7CCC(=O)NC7=O)C8=O)nn6)ncn5)CC4)C3)cc2F)CC1 (stereo not shown) [Compound 26] |  | 97.3 | 12 ± 5 | 0.8 ± 0.0 | 190 ± 80 | 34 ± 11 | 13% and 13 ± 30% | 97.9 | 92.6 | 91.2 | 96.6 | 
8 | CC1(C)CCN(Cc2cc(F)c(N3CC(=O)NC4(CCN(c5cc(NCC6CCN(C(=O)CCCNc7ccc8c(c7)C(=O)N(C7CCC(=O)NC7=O)C8=O)CC6)ncn5)CC4)C3)cc2F)CC1 (stereo not shown) [Compound 23] |  | 78.2 | 57 ± 8 | 1.0 ± 0.1 | 160 ± 80 | 33 ± 12 | 50% and 50 ± 12% | 95.3 | 93.3 | 95.2 | 87.3 | 
9 | CC1(C)CCN(Cc2cc(F)c(N3CC(=O)NC4(CCN(c5cc(NCCCNC(=O)CCCCCCCCn6cc(CNc7cccc8c7C(=O)N(C7CCC(=O)NC7=O)C8=O)nn6)ncn5)CC4)C3)cc2F)CC1 (stereo not shown) [Compound 12] |  | 94.3 | 11 ± 27 | 0.7 ± 0.1 | 320 ± 160 | 67 ± 21 | / (Degradation <10% or stabilization) |  |  |  |  | below 1 μM
